Our source for the IC50 values is patent US8623862B2, “Derivatives of N-[(1H-pyrazol-1-yl)aryl]-1H-indole or 1H-indazole-3-carboxamide, preparation thereof and applications thereof in therapeutics” (Sanofi, priority 2011, dated 2014).

Where a name gives a salt, the structure may show the parent alone. Read-outs that look alike come from different tables or passages of the source.

In this assay the test system is platelet aggregation. Description: Inhibition of platelet aggregation in vitro (rat blood).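 On Inhibition of platelet aggregation in vitro (rat blood) in μM: aggregation induced by ADP added as 4 µL of a 250 µM solution.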 Type of assay: cell-based. Here is the method: The measurements of platelet aggregation are performed at 37° C. in glass tubes (Chrono-Log—Kordia aggregometer).
Inhibition of Platelet Aggregation In Vitro (Rat Blood)
The blood is taken from male rats of the Sprague-Dawley strain, weighing 250-300 g.
The platelet-rich plasma (PRP) is obtained by centrifugation of the blood at 300 g for 5 minutes, and the measurements of platelet aggregation are performed as described above.
The results are calculated using the area under the curve of absorbance measured for 6 minutes, and expressed as percentage inhibition.

Setting [1] is: rat platelet-rich plasma, ADP-induced aggregation, area under the curve of absorbance for 6 minutes, read-out: Inhibition of platelet aggregation in vitro (rat blood).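 On Inhibition of platelet aggregation in vitro (rat blood) in μM: aggregation induced by ADP added as 4 µL of a 250 µM solution.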
Where [2] appears, read: 0.1 h, rat platelet-rich plasma, ADP-induced aggregation, area under the curve of absorbance for 6 minutes, read-out: Inhibition of platelet aggregation in vitro (rat blood).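 On Inhibition of platelet aggregation in vitro (rat blood) in μM: aggregation induced by ADP added as 4 µL of a 250 µM solution.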
[3] abbreviates: Rattus norvegicus, Platelet, 0.1 h, read-out: Inhibition of platelet aggregation in vitro (rat blood) in μM.

For `CCCC(=O)c1cnn(-c2ccc(NC(=O)c3cn(CC(=O)N4CCC(O)C4)c4ccc(Cl)cc34)nn2)c1C` (racemic) [Compound 49], the IC50 under setting [1] turned out to be 0.22 µM. On the same count and under the same terms, the result for `CCCC(=O)c1cnn(-c2ccc(NC(=O)c3cn(CC(=O)N4CCN(CC5CCCO5)CC4)c4ccc(Cl)cc34)nn2)c1C` (racemic) [Compound 63] reads 0.12 µM; that for `CCCC(=O)c1cnn(-c2ccc(NC(=O)c3cn(CC(=O)N4CCN5CCCCC5C4)c4ccc(Cl)cc34)nn2)c1C` (racemic) [Compound 67], 0.09 µM. Consider `CCCC(=O)c1cnn(-c2ccc(NC(=O)c3cn(CC(=O)O)c4ccc(Cl)cc34)cc2)c1C` [Compound 3, (3-{[4-(4-butyryl-5-methyl-1H-pyrazol-1-yl)phenyl]carbamoyl}-5-chloro-1H-indol-1-yl)acetic acid], for which the IC50 under setting [2] was 2.8 µM. Turning to `CCCC(=O)c1cnn(-c2ccc(NC(=O)c3cn(CC(=O)O)c4cc(C)c(Cl)cc34)cc2)c1C` [Compound 4, Sodium (3-{[4-(4-butyryl-5-methyl-1H-pyrazol-1-yl)phenyl]carbamoyl}-5-chloro-6-methyl-1H-indol-1-yl)acetate], the IC50 under setting [2] stood at 3.3 µM.

In the case of `CCCC(=O)c1cnn(-c2ccc(NC(=O)c3cn(CC(=O)O)c4cc(C)ccc34)cc2)c1C` [Compound 8], the IC50 under setting [1] turned out to be 63 µM. The same measure, in the same setting: to `CCCC(=O)c1cnn(-c2ccc(NC(=O)c3cn(CC(=O)O)c4ccc(OC)cc34)cc2)c1C` [Compound 12] belongs 17 µM. `CCCC(=O)c1cnn(-c2ccc(NC(=O)c3cn(CC(=O)O)c4ccc(C(F)(F)F)cc34)cc2)c1C` [Compound 13]: the IC50 under setting [1] is 4.6 µM. Same read-out and setting: the result for `CCCC(=O)c1cnn(-c2ccc(NC(=O)c3cn(CC(=O)O)c4ccc(Br)cc34)cc2)c1C` [Compound 14] reads 1.9 µM.

With `CCCC(=O)c1cnn(-c2ccc(NC(=O)c3cn(CC(=O)O)c4ccc(-c5ccccc5)cc34)cc2)c1C` [Compound 15], the IC50 under setting [1] stood at 25 µM. Still for that read-out and setting: the result for `CCCC(=O)c1cnn(-c2ccc(NC(=O)c3cn(CC(=O)O)c4cc(C)c(C)cc34)cc2)c1C` [Compound 16] reads 4.6 µM; that for `CCCC(=O)c1cnn(-c2ccc(NC(=O)c3cn(CC(=O)O)c4cc(Cl)c(Cl)cc34)cc2)c1C` [Compound 17], 7.3 µM. On the same count and under the same terms, to `CCCC(=O)c1cnn(-c2ccc(NC(=O)c3cn(CC(=O)O)c4ccc(F)cc34)cc2)c1C` [Compound 18] belongs 36 µM. Same read-out and setting: to `CCCC(=O)c1cnn(-c2ccc(NC(=O)c3cn(CC(=O)O)c4cc(Br)c(C)cc34)cc2)c1C` [Compound 19] belongs 42 µM.

Turning to `CCCC(=O)c1cnn(-c2ccc(NC(=O)c3cn(CC(=O)O)c4cc(C)c(Br)cc34)cc2)c1C` [Compound 20], under setting [1], the IC50 worked out at 3.9 µM.

On to `CCCC(=O)c1cnn(-c2ccc(NC(=O)c3cn(CC(=O)O)c4cc(F)c(Cl)cc34)cc2)c1C` [Compound 21], for which the IC50 under setting [1] came out at 2.8 µM.

In the case of `CCCC(=O)c1cnn(-c2ccc(NC(=O)c3cn(CC(=O)O)c4ccc(N(C)C)cc34)cc2)c1C` [Compound 22], the IC50 under setting [1] was 1.2 µM. On the same count and under the same terms, to `CCCC(=O)c1cnn(-c2ccc(NC(=O)c3cn(CC(=O)O)c4ccc(C#N)cc34)cc2)c1C` [Compound 23] belongs 4.1 µM; to `CCCC(=O)c1cnn(-c2ccc(NC(=O)c3nn(CC(=O)O)c4ccc(C)cc34)cc2)c1C` [Compound 24], 37 µM. Turning to `CCCC(=O)c1cnn(-c2cnc(NC(=O)c3cn(CC(=O)N4CCN(C)CC4)c4ccc(Cl)cc34)cn2)c1C` [Compound 27, N-[5-(4-Butyryl-5-methyl-1H-pyrazol-1-yl)pyrazin-2-yl]-5-chloro-1-[2-(4-methylpiperazin-1-yl)-2-oxoethyl]-1H-indole-3-carboxamide hydrochloride], under setting [3], the IC50 worked out at 0.3 µM.

With `CCCC(=O)c1cnn(-c2ccc(NC(=O)c3cn(CC(=O)N4CCN(CCOC(F)(F)F)CC4)c4ccc(Cl)cc34)nn2)c1C` [Compound 30, N-[6-(4-Butyryl-5-methyl-1H-pyrazol-1-yl)pyridazin-3-yl]-5-chloro-1-(2-oxo-2-{4-[2-(trifluoromethoxy)ethyl]piperazin-1-yl}ethyl)-1H-indole-3-carboxamide hydrochloride], the IC50 under setting [3] was 0.1 µM.

On to `CCCC(=O)c1cnn(-c2ccc(NC(=O)c3cn(CC(=O)NC)c4ccc(Cl)cc34)nn2)c1C` [Compound 32], for which, under setting [1], the IC50 was found to be 0.19 µM. The same measure, in the same setting: the result for `CCCC(=O)c1cnn(-c2ccc(NC(=O)c3cn(CC(=O)NCCO)c4ccc(Cl)cc34)nn2)c1C` [Compound 33] reads 0.08 µM. In the case of `CCCC(=O)c1cnn(-c2ccc(NC(=O)c3cn(CC(=O)N4CCN(CC(=O)OCC)CC4)c4ccc(Cl)cc34)nn2)c1C` [Compound 34], the IC50 under setting [1] is 0.09 µM.

Consider `CCCC(=O)c1cnn(-c2ccc(NC(=O)c3cn(CC(=O)N4CCOCC4)c4ccc(Cl)cc34)nn2)c1C` [Compound 35], for which the IC50 under setting [1] is 0.19 µM. Turning to `CCCC(=O)c1cnn(-c2ccc(NC(=O)c3cn(CC(=O)N(C)C)c4ccc(Cl)cc34)nn2)c1C` [Compound 36], the IC50 under setting [1] came to 0.11 µM. The same measure, in the same setting: the result for `CCCC(=O)c1cnn(-c2ccc(NC(=O)c3cn(CC(=O)N(C)CCO)c4ccc(Cl)cc34)nn2)c1C` [Compound 38] reads 0.07 µM; that for `CCCC(=O)c1cnn(-c2ccc(NC(=O)c3cn(CC(=O)N4CCN(CC(=O)NC(C)C)CC4)c4ccc(Cl)cc34)nn2)c1C` [Compound 39], 0.04 µM. On the same count and under the same terms, the result for `CCCC(=O)c1cnn(-c2ccc(NC(=O)c3cn(CC(=O)N4CCCC4)c4ccc(Cl)cc34)nn2)c1C` [Compound 40] reads 0.1 µM.

For `CCCC(=O)c1cnn(-c2ccc(NC(=O)c3cn(CC(=O)N4CCN(C(C)=O)CC4)c4ccc(Cl)cc34)nn2)c1C` [Compound 42], the IC50 under setting [1] amounted to 0.15 µM.

In the case of `CCCC(=O)c1cnn(-c2ccc(NC(=O)c3cn(CC(=O)N4CC(C)NC(C)C4)c4ccc(Cl)cc34)nn2)c1C` (stereo not shown) [Compound 43], the IC50 under setting [1] came out at 0.12 µM. As for `CCCC(=O)c1cnn(-c2ccc(NC(=O)c3cn(CC(=O)N4CCN(C)C(=O)C4)c4ccc(Cl)cc34)nn2)c1C` [Compound 44], the IC50 under setting [1] stood at 0.16 µM. Still for that read-out and setting: the result for `CCCC(=O)c1cnn(-c2ccc(NC(=O)c3cn(CC(=O)N4CCN(c5ccc(F)cc5)CC4)c4ccc(Cl)cc34)nn2)c1C` [Compound 45] reads 0.42 µM. For the molecule `CCCC(=O)c1cnn(-c2ccc(NC(=O)c3cn(CC(=O)N4CCN(CC(=O)N5CCCC5)CC4)c4ccc(Cl)cc34)nn2)c1C` [Compound 46], under setting [1], the IC50 was found to be 0.04 µM. Same read-out and setting: the result for `CCCC(=O)c1cnn(-c2ccc(NC(=O)c3cn(CC(=O)N4CCN(CC)CC4)c4ccc(Cl)cc34)nn2)c1C` [Compound 47] reads 0.06 µM; that for `CCCC(=O)c1cnn(-c2ccc(NC(=O)c3cn(CC(=O)N4CCN(CCC)CC4)c4ccc(Cl)cc34)nn2)c1C` [Compound 48], 0.14 µM. Still for that read-out and setting: the result for `CCCC(=O)c1cnn(-c2ccc(NC(=O)c3cn(CC(=O)N4CCC(CCO)CC4)c4ccc(Cl)cc34)nn2)c1C` [Compound 50] reads 0.05 µM; that for `CCCC(=O)c1cnn(-c2ccc(NC(=O)c3cn(CC(=O)N4CCN(C(C)C)CC4)c4ccc(Cl)cc34)nn2)c1C` [Compound 54], 0.11 µM. For the molecule `CCCCN1CCN(C(=O)Cn2cc(C(=O)Nc3ccc(-n4ncc(C(=O)CCC)c4C)nn3)c3cc(Cl)ccc32)CC1` [Compound 55], under setting [1], the IC50 is 0.16 µM. The same measure, in the same setting: the result for `CCCC(=O)c1cnn(-c2ccc(NC(=O)c3cn(CC(=O)N4CCC(CO)CC4)c4ccc(Cl)cc34)nn2)c1C` [Compound 56] reads 0.3 µM.
